According to patent US20240254119A1 (THIRD HARMONIC BIO, INC., priority 2022, published 2024):

target: T1, wtKIT (Homo sapiens, UniProt P10721); assay: HTRF biochemical assay, wtKIT (phosphorylation of a peptide substrate); settings: Table 4
T1 construct: 1888289AM in the reaction mixtures
In short: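 wtKIT (5.0 nM) phosphorylating 1 µM FAM-labelled peptide with 400 µM ATP and 10 mM MnCl2 in 100 mM HEPES pH 7.5, 1% DMSO, 3 h at 25 °C. EDTA quench; phosphopeptide detected with anti-phosphotyrosine antibody by HTRF. Enzyme titrated for 10-20% substrate conversion.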

T1 sequence (P10721 26-976): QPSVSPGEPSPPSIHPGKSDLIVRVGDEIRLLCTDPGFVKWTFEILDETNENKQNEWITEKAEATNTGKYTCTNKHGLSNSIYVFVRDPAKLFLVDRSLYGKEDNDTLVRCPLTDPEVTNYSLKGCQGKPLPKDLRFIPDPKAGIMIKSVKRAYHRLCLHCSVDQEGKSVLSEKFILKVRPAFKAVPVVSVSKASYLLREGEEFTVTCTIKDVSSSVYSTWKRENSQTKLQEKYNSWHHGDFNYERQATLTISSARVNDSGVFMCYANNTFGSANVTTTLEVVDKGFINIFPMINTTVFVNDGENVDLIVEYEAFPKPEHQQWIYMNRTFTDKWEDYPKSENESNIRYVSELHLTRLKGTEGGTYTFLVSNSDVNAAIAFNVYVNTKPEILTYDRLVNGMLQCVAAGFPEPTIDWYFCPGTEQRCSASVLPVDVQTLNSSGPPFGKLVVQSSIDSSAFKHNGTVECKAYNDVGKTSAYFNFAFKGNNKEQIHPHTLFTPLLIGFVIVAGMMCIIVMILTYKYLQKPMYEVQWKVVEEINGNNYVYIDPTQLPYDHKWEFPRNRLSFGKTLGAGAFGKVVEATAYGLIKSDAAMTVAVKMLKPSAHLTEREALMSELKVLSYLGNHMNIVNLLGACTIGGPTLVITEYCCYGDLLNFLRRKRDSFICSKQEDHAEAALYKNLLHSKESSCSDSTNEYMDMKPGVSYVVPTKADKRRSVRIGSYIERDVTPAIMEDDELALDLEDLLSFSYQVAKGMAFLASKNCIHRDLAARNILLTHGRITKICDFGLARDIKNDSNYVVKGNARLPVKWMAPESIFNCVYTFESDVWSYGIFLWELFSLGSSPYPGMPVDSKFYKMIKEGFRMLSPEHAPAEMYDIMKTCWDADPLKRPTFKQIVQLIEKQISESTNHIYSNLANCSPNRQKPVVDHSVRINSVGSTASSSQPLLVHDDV

Row | Compound | IC50 [nM]
1 | CNCC(O)Cc1nc(-c2ccc(C)c(NC(=O)c3cnc4ccccn34)c2)no1 (stereo not drawn) [Compound I-557] | 5000 to 30000
2 | Cc1ccc(-c2noc(CCC(C)(C)O)n2)cc1NC(=O)c1cnn2ccccc12 [Compound I-563] | 50 to 500
3 | Cc1nc(-c2ccc(C)c(NC(=O)c3cnc4ccccn34)c2)no1 [Compound I-564] | 50 to 500
4 | Cc1ccc(-c2noc(CCC(C)(C)O)n2)cc1NC(=O)c1cnc2cc(COCC(C)(C)O)ccn12 [Compound I-567] | 50 to 500
5 | Cc1ccc(-c2noc(C[C@H](O)C(F)F)n2)cc1NC(=O)c1cnc2cc(OCCCCO)ccn12 [Compound I-568, (S)—N-(5-(5-(3,3-difluoro-2-hydroxypropyl)-1,2,4-oxadiazol-3-yl)-2-methylphenyl)-7-(4-hydroxybutoxy)imidazo[1,2-a]pyridine-3-carboxamide] | ≤ 50
6 | Cc1nc(-c2ccc(C)c(NC(=O)c3cnn4cc(C(F)F)ccc34)c2)no1 [Compound I-569] | 50 to 500
7 | Cc1ccc(-c2noc(-c3ccccn3)n2)cc1NC(=O)c1cnc2cc(COCC(C)(C)O)ccn12 [Compound I-573] | 50 to 500
8 | Cc1ccn2c(C(=O)Nc3cc(-c4noc(CC5CCCCO5)n4)ccc3C)cnc2c1 (stereo not drawn) [Compound I-583, 7-methyl-N-(2-methyl-5-(5-((tetrahydro-2H-pyran-2-yl)methyl)-1,2,4-oxadiazol-3-yl)phenyl)imidazo[1,2-a]pyridine-3-carboxamide] | ≤ 50
9 | Cc1ccc(-c2noc(C[C@H](O)C(F)F)n2)cc1NC(=O)c1cnc2cc(COCc3c[nH]cn3)ccn12 [Compound I-585, (S)-7-(((1H-imidazol-4-yl)methoxy)methyl)-N-(5-(5-(3,3-difluoro-2-hydroxypropyl)-1,2,4-oxadiazol-3-yl)-2-methylphenyl)imidazo[1,2-a]pyridine-3-carboxamide] | ≤ 50
10 | Cc1ccc(-c2noc(C[C@H](O)C(F)F)n2)cc1NC(=O)c1cnc2cc(COCc3ccn[nH]3)ccn12 [Compound I-586, (S)-7-(((1H-pyrazol-5-yl)methoxy)methyl)-N-(5-(5-(3,3-difluoro-2-hydroxypropyl)-1,2,4-oxadiazol-3-yl)-2-methylphenyl)imidazo[1,2-a]pyridine-3-carboxamide] | ≤ 50
11 | Cc1ccc(-c2noc(C[C@H](O)C(F)F)n2)cc1NC(=O)c1cnc2cc(COCc3nc[nH]n3)ccn12 [Compound I-587, N-[5-[5-[(2S)-3,3-difluoro-2-hydroxy-propyl]-1,2,4-oxadiazol-3-yl]-2-methyl-phenyl]-7-(1H-1,2,4-triazol-3-ylmethoxymethyl)imidazo[1,2-a]pyridine-3-carboxamide] | ≤ 50
12 | Cc1ccn2c(C(=O)Nc3cc(-c4noc(CC(=O)CF)n4)ccc3C)cnc2c1 [Compound I-589] | 500 to 5000
13 | Cc1ccc(-c2noc(CC(O)C3COC3)n2)cc1NC(=O)c1cnc2ccccn12 (stereo not drawn) [Compound I-591] | 50 to 500
14 | COc1ccn2c(C(=O)Nc3cc(-c4noc(CC5CCCCO5)n4)ccc3C)cnc2c1 (stereo not drawn) [Compound I-592, 7-methoxy-N-(2-methyl-5-(5-((tetrahydro-2H-pyran-2-yl)methyl)-1,2,4-oxadiazol-3-yl)phenyl)imidazo[1,2-a]pyridine-3-carboxamide] | ≤ 50
15 | CNCCOCc1ccn2c(C(=O)Nc3cc(-c4noc(C[C@H](O)C(F)F)n4)ccc3C)cnc2c1 [Compound I-593] | 50 to 500
16 | Cc1nc(-c2ccc(C)c(NC(=O)c3cnc4cc(-c5csc(CO)n5)ccn34)c2)no1 [Compound I-594, 7-(2-(hydroxymethyl)thiazol-4-yl)-N-(2-methyl-5-(5-methyl-1,2,4-oxadiazol-3-yl)phenyl)imidazo[1,2-a]pyridine-3-carboxamide] | ≤ 50
17 | Cc1nc(-c2ccc(C)c(NC(=O)c3cnc4cc(-c5ncsc5CO)ccn34)c2)no1 [Compound I-595, 7-(5-(hydroxymethyl)thiazol-4-yl)-N-(2-methyl-5-(5-methyl-1,2,4-oxadiazol-3-yl)phenyl)imidazo[1,2-a]pyridine-3-carboxamide] | ≤ 50
18 | Cc1ccc(-c2noc(C[C@H](O)C(F)F)n2)cc1NC(=O)c1cnc2cc(COCc3nn[nH]n3)ccn12 [Compound I-597, (S)-7-(((2H-tetrazol-5-yl)methoxy)methyl)-N-(5-(5-(3,3-difluoro-2-hydroxypropyl)-1,2,4-oxadiazol-3-yl)-2-methylphenyl)imidazo[1,2-a]pyridine-3-carboxamide] | ≤ 50
19 | CNC(C)COCc1ccn2c(C(=O)Nc3cc(-c4noc(CC(O)C(F)F)n4)ccc3C)cnc2c1 (stereo not drawn) [Compound I-598] | 50 to 500
20 | CNC(C)COCc1ccn2c(C(=O)Nc3cc(-c4noc(CC(O)C(F)F)n4)ccc3C)cnc2c1 (stereo not drawn) [Compound I-599] | 50 to 500
21 | Cc1ccc(-c2noc(CC(O)C(F)F)n2)cc1NC(=O)c1cnc2cc(COCC(C)N(C)C(=O)OC(C)(C)C)ccn12 (stereo not drawn) [Compound I-600] | 50 to 500

Next, values leading:

Row | IC50 [nM] | Compound
22 | ≤ 50 | Cc1ccc(-c2noc(C[C@H](O)C(F)F)n2)cc1NC(=O)c1cnc2cc(-c3cscn3)ccn12 [Compound I-554, (S)—N-(5-(5-(3,3-difluoro-2-hydroxypropyl)-1,2,4-oxadiazol-3-yl)-2-methylphenyl)-7-(thiazol-4-yl)imidazo[1,2-a]pyridine-3-carboxamide]
23 | ≤ 50 | Cc1ccc(-c2noc(C[C@H](O)C(F)F)n2)cc1NC(=O)c1cnc2cc(-c3ccn(C)n3)ccn12 [Compound I-555, (S)—N-(5-(5-(3,3-difluoro-2-hydroxypropyl)-1,2,4-oxadiazol-3-yl)-2-methylphenyl)-7-(1-methyl-1H-pyrazol-3-yl)imidazo[1,2-a]pyridine-3-carboxamide]
24 | ≤ 50 | COc1ccn2c(C(=O)Nc3cc(-c4noc(-c5ccc(C)cn5)n4)ccc3C)cnc2c1 [Compound I-556, 7-methoxy-N-(2-methyl-5-(5-(5-methylpyridin-2-yl)-1,2,4-oxadiazol-3-yl)phenyl)imidazo[1,2-a]pyridine-3-carboxamide]
25 | ≤ 50 | Cc1nc(-c2ccc(C)c(NC(=O)c3cnn4cc(-c5cscn5)ccc34)c2)no1 [Compound I-559, N-(2-methyl-5-(5-methyl-1,2,4-oxadiazol-3-yl)phenyl)-6-(thiazol-4-yl)pyrazolo[1,5-a]pyridine-3-carboxamide]
26 | ≤ 50 | Cc1ccc(-c2noc(C[C@H](O)C(F)F)n2)cc1NC(=O)c1cnc2ccc(-c3cscn3)cn12 [Compound I-560, (S)—N-(5-(5-(3,3-difluoro-2-hydroxypropyl)-1,2,4-oxadiazol-3-yl)-2-methylphenyl)-6-(thiazol-4-yl)imidazo[1,2-a]pyridine-3-carboxamide]
27 | ≤ 50 | COc1ccn2c(C(=O)Nc3cc(-c4noc(CCC(C)(C)O)n4)ccc3C)cnc2c1 [Compound I-561, N-(5-(5-(3-hydroxy-3-methylbutyl)-1,2,4-oxadiazol-3-yl)-2-methylphenyl)-7-methoxyimidazo[1,2-a]pyridine-3-carboxamide]
28 | ≤ 50 | Cc1ccc(-c2noc(C[C@H](O)C(F)F)n2)cc1NC(=O)c1cnc2ccc(-c3ccn(C)n3)cn12 [Compound I-562, (S)—N-(5-(5-(3,3-difluoro-2-hydroxypropyl)-1,2,4-oxadiazol-3-yl)-2-methylphenyl)-6-(1-methyl-1H-pyrazol-3-yl)imidazo[1,2-a]pyridine-3-carboxamide]
29 | ≤ 50 | CCOc1ccn2c(C(=O)Nc3cc(-c4noc(C[C@H](O)C(F)F)n4)ccc3C)cnc2c1 [Compound I-566, (S)—N-(5-(5-(3,3-difluoro-2-hydroxypropyl)-1,2,4-oxadiazol-3-yl)-2-methylphenyl)-7-ethoxyimidazo[1,2-a]pyridine-3-carboxamide]
30 | ≤ 50 | Cc1ccc(-c2noc(C[C@H](O)C(F)F)n2)cc1NC(=O)c1cnc2cc(OCCO)ccn12 [Compound I-570, (S)—N-(5-(5-(3,3-difluoro-2-hydroxypropyl)-1,2,4-oxadiazol-3-yl)-2-methylphenyl)-7-(2-hydroxyethoxy)imidazo[1,2-a]pyridine-3-carboxamide]
31 | ≤ 50 | Cc1ccc(-c2noc(C[C@H](O)C(F)F)n2)cc1NC(=O)c1cnc2cc(OCC(C)O)ccn12 (stereo partly drawn) [Compound I-571, N-(5-(5-((S)-3,3-difluoro-2-hydroxypropyl)-1,2,4-oxadiazol-3-yl)-2-methylphenyl)-7-(2-hydroxypropoxy)imidazo[1,2-a]pyridine-3-carboxamide]
32 | ≤ 50 | Cc1ccc(-c2noc(C[C@H](O)C(F)F)n2)cc1NC(=O)c1cnc2cc(O)ccn12 [Compound I-574, (S)—N-(5-(5-(3,3-difluoro-2-hydroxypropyl)-1,2,4-oxadiazol-3-yl)-2-methylphenyl)-7-hydroxyimidazo[1,2-a]pyridine-3-carboxamide]
33 | ≤ 50 | Cc1ccc(-c2noc(C[C@H](O)C(F)F)n2)cc1NC(=O)c1cnc2cc(COCc3c[nH]nn3)ccn12 [Compound I-575, (S)-7-(((1H-1,2,3-triazol-4-yl)methoxy)methyl)-N-(5-(5-(3,3-difluoro-2-hydroxypropyl)-1,2,4-oxadiazol-3-yl)-2-methylphenyl)imidazo[1,2-a]pyridine-3-carboxamide]
34 | ≤ 50 | Cc1ccc(-c2noc(C[C@H](O)C(F)F)n2)cc1NC(=O)c1cnc2cc(OCC(C)(C)O)ccn12 [Compound I-576]
35 | ≤ 50 | Cc1ccc(-c2noc(C[C@H](O)C(F)F)n2)cc1NC(=O)c1cnc2cc(OCCCC(C)(C)O)ccn12 [Compound I-580, (S)—N-(5-(5-(3,3-difluoro-2-hydroxypropyl)-1,2,4-oxadiazol-3-yl)-2-methylphenyl)-7-((4-hydroxy-4-methylpentyl)oxy)imidazo[1,2-a]pyridine-3-carboxamide]
36 | ≤ 50 | COc1ccn2c(C(=O)Nc3cc(-c4noc(CC5CCCO5)n4)ccc3C)cnc2c1 (stereo not drawn) [Compound I-582, 7-methoxy-N-(2-methyl-5-(5-((tetrahydrofuran-2-yl)methyl)-1,2,4-oxadiazol-3-yl)phenyl)imidazo[1,2-a]pyridine-3-carboxamide]
